Measurements as given in US20030199516A1, “Methods of treating infection by drug resistant bacteria” (Genesoft, Inc., priority 2001, published 2003).
pKd: −log10 of the molar value.

Tests used:
[1] = tested on: Candida albicans ATCC 38247; assay: Antifungal MIC; assay type: cell-based; details: Col. F = C. albicans ATCC 38247
From the text: (§1) In vitro antibacterial activity data were collected for the following Gram-positive bacteria: Staphylococcus aureus (ATCC 27660, ATCC 33591 and ATCC 43300, all methicillin resistant strains (MRSA's)); Streptococcus pneumoniae (ATCC 51422, a penicillin resistant strain (PRSP)), Enterococcus faecium (ATCC 51559, and/or a vancomycin resistant strain (VRE)). Additionally, antifungal activity data were collected for Candida albicans (ATCC 38247). Minimal inhibition concentrations (MIC's) were determined using the National Committee for Clinical Laboratory Standards (NCCLS) broth microdilution assay in microtiter plates, as set forth in: (1) the guidelines of the National Committee for Clinical Laboratory Standards (NCCLS) Document M7-A4 (NCCLS, 1997); (2) the guidelines of the National Committee for Clinical Laboratory Standards (NCCLS) Document M11-A4 (NCCLS, 1997); and (3) the guidelines and reference method of the National Committee for Clinical Laboratory Standards (NCCLS) Document M27-T (NCCLS, 1995). For antifungal essays, the method recommended in Murray, PR., 1995 Manual of Clinical Microbiology (ASM Press, Washington, D.C.), was employed.

S. aureus ATCC 33591 = assay: NCCLS broth microdilution MIC; assay type: cell-based, Staphylococcus aureus; details: Col. B = S. aureus ATCC 33591 (MRSA)
From the text: as §1

S. aureus ATCC 27660 = assay: NCCLS broth microdilution MIC; assay type: cell-based, Staphylococcus aureus; details: Col. A = S. aureus ATCC 27660 (MRSA)
From the text: as §1

[2] = target: target sequence AAAAAGCAAAAA (351 bp fragment, Plasmid A); assay: Quantitative DNase I footprint titration; assay type: binding; details: 351 bp A, 22° C., pH 7.0, read-out: Dissociation Constant Kd
From the text: (§2) Compounds (1) through (20) according to this invention were screened for their ability to bind to specified DNA target sequences, using DNase I footprinting. Generally, the procedure described in Dervan, WO 98/50582 (1998), was followed.
(§3) Three double stranded circular plasmids A, B, and C were used to prepare double stranded DNA-binding probes containing the target sequences for the DNase I footprint titration experiments. Plasmids A, B, and C had nucleotide sequences given by SEQ ID NO. I, SEQ ID NO. II, and SEQ ID NO. III, respectively.
(§4) The 3′-P32 end-labeled EcoRI/PvuII fragments from each plasmid were prepared by digesting the plasmids with EcoRI and PvuII with simultaneous fill-in using Sequenase v. 2.0, [alpha-P32]-deoxyadenosine-5′-triphosphate, and [alpha-P32]-thymidine-5′-triphosphate, and isolating the cloned fragments by nondenaturing gel electrophoresis. A and G sequencing reactions were carried out as described (See Maxam and Gilbert, Methods Enzymol., 1980, 65, 499-560; Iverson and Dervan, Methods Enzymol., 1987, 15, 7823-7830; Sambrook et al., 1989, Molecular Cloning, 2nd ed., Cold Spring Harbor Laboratory Press: Cold Spring Harbor, N.Y.) Standard methods were used for all DNA manipulations (Sambrook et al., ibid.) The cut sites for EcoRI and PvuII are indicated by bars in the respective maps of Plasmids A, B, and C in FIGS. 5, 6, and 7.
(§5) The 351 base pair dsDNA restriction fragment (SEQ ID NO. IV) of Plasmid A contained the target sequences AAAAAGCAAAAA, AAAAAGACAAAAA, and AAAAAGTACAAAAA. The 310 base pair dsDNA restriction fragment (SEQ ID NO. V) of Plasmid B contained the target sequences AGTACT, AATACT, and ATTACT. The 352 base pair dsDNA restriction fragment (SEQ ID NO. VI) of Plasmid C contained the target sequences TGACAATTAAT, GACAATTAATCA, AATTAATCAT, ACAATTA, and ACAATTAAT. These fragments were used for quantitative DNase I footprinting experiments. Compounds used in the method of this invention bind to at least one of the target sites with a equal to or less than 100 nM, preferably equal to or less than 50 nM, and more preferably equal to or less than 20 nM. The target sequences were selected for the identity with, or similarity to, promoter sites for bacterial genes.
(§6) Quantitative DNase I footprint titration experiments were carried out as described previously (Dervan, WO 98/50582, 1998) with the following changes. All reactions were carried out in a total volume of 400 μL, with compound stock solution or water added to 15,000 cpm radiolabeled restriction fragment affording final solution conditions of 10 mM Tris HCl, 10 mM KCl, 10 mM MgCl2, 5 mM CaCl2, pH 7.0 and 0.01 nM, 0.1 nM, 1.0 nM, 10.0 nM compound or no compound for reference lanes. The compounds were allowed to equilbrate at 22° C. for 16 h. Footprinting reactions were initiated with addition of 10 μL of a DNase I stock solution (at the appropriate concentration to give ˜50% intact DNA) containing 1 mM DTT and allowed to proceed for 7 min at 22° C. The reactions were stopped, ethanol precipitated, resuspended in loading buffer, heat denatured, and placed on ice as described previously (Dervan WO 98/50582, 1998). The reaction products were separated on a precast 8% polyacrylamide denaturing sequencing Castaway gel with 32 preformed wells from Stratagene in 1×TBE at 2000 V. Gels were dried according to the manufacturer and exposed to a storage phosphor screen (Molecular Dynamics). Quantitation and data analysis were carried out as described in Dervan, WO 98/50582, 1998.

[3] = target: target sequence TGACAATTAAT (352 bp fragment, Plasmid C); assay: Quantitative DNase I footprint titration; assay type: binding; details: 352 bp C, 22° C., pH 7.0, read-out: Dissociation Constant Kd
From the text: as §2, §3, §4, §5, §6

[4] = target: target sequence AAAAAGACAAAAA (351 bp fragment, Plasmid A); assay: Quantitative DNase I footprint titration; assay type: binding; details: 351 bp A, 22° C., pH 7.0, read-out: Dissociation Constant Kd
From the text: as §2, §3, §4, §5, §6

[5] = tested on: Streptococcus pneumoniae ATCC 51422; assay: NCCLS broth microdilution MIC; assay type: cell-based; details: Col. E = S. pneumoniae ATCC 51422 (PRSP)
From the text: as §1

[6] = tested on: Enterococcus faecium ATCC 51559; assay: NCCLS broth microdilution MIC; assay type: cell-based; details: Col. D = E. faecium ATCC 51559 (VRE)
From the text: as §1

CN(C)CCCNC(=O)CCNC(=O)c1cc(NC(=O)c2cc(NC(=O)CCNC(=O)c3cc(NC(=O)c4cc(NC(=O)c5cc(Br)c(Br)s5)cn4C)cn3C)cn2C)cn1C [Compound 1]
Minimum Inhibitory Concentration (MIC) [1]: >32 µg/mL
Minimum Inhibitory Concentration (MIC) (S. aureus ATCC 33591): + (+ = MIC ≦ 2)
Minimum Inhibitory Concentration (MIC) (S. aureus ATCC 27660): ++ (++ = MIC ≦ 1)
pKd [2]: 11.00
pKd [3]: 8.70
pKd [4]: 11.00
Minimum Inhibitory Concentration (MIC) [5]: ++ (++ = MIC ≦ 1)
Minimum Inhibitory Concentration (MIC) [6]: − (− = MIC > 2)
